Measurements published in PMC3131451 (Journal of medicinal chemistry, 2010).

Columns and labels:
[1] = target: PI3Kα (PIK3CA/PIK3R1) (Homo sapiens, UniProt P42336); experiment: LanthaScreen Eu kinase binding assay PI3Kα; conditions: for activity in words, biochemical and cell-based assays: both in the biochemical and cell-based assays (Table 1)
[2] = target: T1, PDK1 (Homo sapiens, UniProt O15530); experiment: Z'-LYTE kinase activity assay PDK1; assay type: biochemical; conditions: read-out: Kinase assay IC50 PDK1, ATP at Km
T1 sequence (O15530 1-556): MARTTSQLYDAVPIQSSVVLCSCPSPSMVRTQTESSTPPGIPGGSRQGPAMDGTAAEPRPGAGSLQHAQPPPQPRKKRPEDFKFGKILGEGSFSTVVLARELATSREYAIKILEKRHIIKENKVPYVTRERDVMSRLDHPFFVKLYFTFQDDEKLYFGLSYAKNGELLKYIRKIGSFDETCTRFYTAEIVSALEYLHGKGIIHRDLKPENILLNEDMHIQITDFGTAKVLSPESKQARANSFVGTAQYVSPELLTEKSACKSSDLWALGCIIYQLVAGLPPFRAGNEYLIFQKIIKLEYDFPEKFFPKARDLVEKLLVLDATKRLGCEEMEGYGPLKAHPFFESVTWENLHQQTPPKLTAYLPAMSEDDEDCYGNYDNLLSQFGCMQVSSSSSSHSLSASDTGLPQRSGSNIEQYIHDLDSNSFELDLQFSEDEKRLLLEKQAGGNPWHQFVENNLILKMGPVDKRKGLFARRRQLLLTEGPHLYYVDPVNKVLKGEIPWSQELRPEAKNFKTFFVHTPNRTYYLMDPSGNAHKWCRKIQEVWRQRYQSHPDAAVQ

[3] = target: mTOR (FRAP1) (Homo sapiens, UniProt P42345); experiment: LanthaScreen Eu kinase binding assay mTOR; conditions: read-out: Kinase assay IC50 mTOR
Chain of mTOR (FRAP1) (P42345 1360-2549 limits assumed): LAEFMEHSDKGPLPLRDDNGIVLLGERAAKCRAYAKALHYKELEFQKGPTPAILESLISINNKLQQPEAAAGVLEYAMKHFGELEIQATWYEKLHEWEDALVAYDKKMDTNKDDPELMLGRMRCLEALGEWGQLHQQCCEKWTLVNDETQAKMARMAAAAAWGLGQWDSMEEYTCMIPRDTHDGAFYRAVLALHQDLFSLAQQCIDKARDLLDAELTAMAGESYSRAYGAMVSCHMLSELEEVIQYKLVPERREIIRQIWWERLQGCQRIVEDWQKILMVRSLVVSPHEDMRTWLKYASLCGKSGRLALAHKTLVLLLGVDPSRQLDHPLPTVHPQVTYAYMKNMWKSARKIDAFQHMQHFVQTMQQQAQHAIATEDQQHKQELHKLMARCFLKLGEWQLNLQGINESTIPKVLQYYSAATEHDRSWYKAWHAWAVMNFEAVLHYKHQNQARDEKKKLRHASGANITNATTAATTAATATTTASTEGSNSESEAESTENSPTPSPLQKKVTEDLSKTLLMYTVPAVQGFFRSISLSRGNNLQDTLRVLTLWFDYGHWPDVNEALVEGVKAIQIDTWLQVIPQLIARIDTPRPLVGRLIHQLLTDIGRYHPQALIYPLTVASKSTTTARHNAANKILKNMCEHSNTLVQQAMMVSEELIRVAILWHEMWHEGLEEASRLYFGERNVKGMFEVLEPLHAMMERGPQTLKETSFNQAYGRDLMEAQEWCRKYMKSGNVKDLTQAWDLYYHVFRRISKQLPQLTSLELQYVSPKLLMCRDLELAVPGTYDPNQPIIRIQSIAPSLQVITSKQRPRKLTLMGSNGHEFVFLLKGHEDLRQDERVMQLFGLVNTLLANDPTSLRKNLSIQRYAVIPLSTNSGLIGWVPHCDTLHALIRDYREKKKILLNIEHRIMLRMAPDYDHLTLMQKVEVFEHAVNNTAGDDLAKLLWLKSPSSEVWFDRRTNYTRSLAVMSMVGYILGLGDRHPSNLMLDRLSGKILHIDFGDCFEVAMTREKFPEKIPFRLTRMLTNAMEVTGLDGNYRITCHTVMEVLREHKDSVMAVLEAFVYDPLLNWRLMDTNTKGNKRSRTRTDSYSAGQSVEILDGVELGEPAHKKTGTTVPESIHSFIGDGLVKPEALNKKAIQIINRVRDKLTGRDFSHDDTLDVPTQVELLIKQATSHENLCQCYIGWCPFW

[4] = tested on: AKT [pT308]
[5] = tested on: PRAS40 [pS183]; experiment: LanthaScreen cellular assay PRAS40 [pSer183]; conditions: HEK293E, 1 h, read-out: Cell-based Assay IC50 PRAS40 [pS183]
[6] = tested on: Hela cervical carcinoma cells; experiment: Anti-proliferative assay; conditions: Homo sapiens, 72 h, read-out: Cell-based Assay GI50 Hela
[7] = target: PI-3Kα (Homo sapiens, UniProt P42336); experiment: SelectScreen Biochemical Kinase Profiling PI-3Kα; conditions: in vitro displacement assays against the PI3K isoforms
Chain of PI-3Kα (P42336 whole entry, canonical isoform): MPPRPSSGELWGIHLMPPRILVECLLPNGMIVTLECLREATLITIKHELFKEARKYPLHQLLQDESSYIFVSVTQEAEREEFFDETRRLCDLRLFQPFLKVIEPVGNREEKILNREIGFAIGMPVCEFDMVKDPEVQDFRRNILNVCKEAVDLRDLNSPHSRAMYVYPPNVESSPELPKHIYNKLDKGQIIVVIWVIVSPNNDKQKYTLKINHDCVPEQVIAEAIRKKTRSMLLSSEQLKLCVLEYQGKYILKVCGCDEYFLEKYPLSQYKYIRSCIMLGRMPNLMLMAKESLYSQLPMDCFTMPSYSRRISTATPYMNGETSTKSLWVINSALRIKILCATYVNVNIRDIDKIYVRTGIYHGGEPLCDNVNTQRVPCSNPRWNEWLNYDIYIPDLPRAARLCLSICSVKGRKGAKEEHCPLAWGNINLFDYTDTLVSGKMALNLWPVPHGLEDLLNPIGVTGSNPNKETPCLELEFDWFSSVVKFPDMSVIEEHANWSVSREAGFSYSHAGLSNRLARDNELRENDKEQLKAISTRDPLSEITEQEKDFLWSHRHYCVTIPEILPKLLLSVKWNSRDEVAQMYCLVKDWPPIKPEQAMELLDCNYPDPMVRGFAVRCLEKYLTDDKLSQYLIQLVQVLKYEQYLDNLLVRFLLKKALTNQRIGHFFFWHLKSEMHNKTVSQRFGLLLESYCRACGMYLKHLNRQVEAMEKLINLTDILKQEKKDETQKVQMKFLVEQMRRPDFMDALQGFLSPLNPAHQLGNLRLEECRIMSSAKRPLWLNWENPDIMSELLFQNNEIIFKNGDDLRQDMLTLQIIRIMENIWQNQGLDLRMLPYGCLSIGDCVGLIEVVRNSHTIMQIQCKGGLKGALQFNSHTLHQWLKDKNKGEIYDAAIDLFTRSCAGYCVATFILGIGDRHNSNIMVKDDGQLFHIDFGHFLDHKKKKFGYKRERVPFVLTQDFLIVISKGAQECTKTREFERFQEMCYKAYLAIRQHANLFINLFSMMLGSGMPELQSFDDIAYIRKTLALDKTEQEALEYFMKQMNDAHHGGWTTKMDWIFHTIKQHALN
Chain of PI-3Kα (P27986 whole entry partner, canonical isoform): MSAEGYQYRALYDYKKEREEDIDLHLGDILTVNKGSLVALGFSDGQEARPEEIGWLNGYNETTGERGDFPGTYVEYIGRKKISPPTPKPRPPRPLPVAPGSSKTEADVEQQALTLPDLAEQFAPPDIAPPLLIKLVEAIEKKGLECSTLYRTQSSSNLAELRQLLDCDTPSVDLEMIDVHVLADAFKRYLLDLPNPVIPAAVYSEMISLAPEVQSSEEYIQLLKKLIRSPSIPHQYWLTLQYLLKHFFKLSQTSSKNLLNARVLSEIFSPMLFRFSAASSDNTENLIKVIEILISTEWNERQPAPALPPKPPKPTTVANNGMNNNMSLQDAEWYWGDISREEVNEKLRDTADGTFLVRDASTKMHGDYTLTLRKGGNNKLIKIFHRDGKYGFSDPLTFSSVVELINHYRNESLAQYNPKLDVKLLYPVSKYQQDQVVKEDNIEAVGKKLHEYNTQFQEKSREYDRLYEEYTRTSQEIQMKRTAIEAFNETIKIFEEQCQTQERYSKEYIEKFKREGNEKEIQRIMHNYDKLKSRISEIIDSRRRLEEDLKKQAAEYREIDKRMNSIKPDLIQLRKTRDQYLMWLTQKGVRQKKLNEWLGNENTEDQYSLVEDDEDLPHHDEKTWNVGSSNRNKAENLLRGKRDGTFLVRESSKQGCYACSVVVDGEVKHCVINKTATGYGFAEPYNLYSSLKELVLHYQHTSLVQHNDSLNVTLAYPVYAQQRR

[8] = tested on: U87 glioblastoma cells; experiment: 3D culture assay, U87 spheroids; assay type: cell-based, human; conditions: 10 µM every day, total of 6 days
[9] = tested on: 314 protein kinases; experiment: Selectivity panel against 314 protein kinases; assay type: biochemical; conditions: 10 µM, preliminary selectivity panel
[10] = target: DNA-PK (Homo sapiens, UniProt P78527); experiment: Selectivity panel, kinase inhibition; assay type: biochemical

Chain of PI3Kα (PIK3CA/PIK3R1) (P42336 whole entry): as the sequence (P42336 whole entry, canonical isoform) above
Chain of PI3Kα (PIK3CA/PIK3R1) (P27986 whole entry partner): as the sequence (P27986 whole entry partner, canonical isoform) above

With C(#Cc1n[nH]c2ncccc12)c1ccncc1 [Compound 20, 3-(pyridin-4-ylethynyl)-1H-pyrazolo[3,4-b]pyridine] the “loss of PI3Kα activity versus compound 10” value ([1]; pyrazolopyridine analog compared with indazole 10) was 10 fold.

For “3-(pyridin-2-ylethynyl)-1H-pyrazolo[3,4-b]pyridine [Compound 21]”, the IC50 ([1]; read-out: Kinase assay IC50 PI3Kα, LanthaScreen Eu kinase binding assay) was 9 µM, the IC50 [2] was > 50 µM and the IC50 [3] was 5 µM.

With C(#CC1CC1)c1n[nH]c2ccccc12 [Compound 15, 3-(cyclopropylethynyl)-1H-indazole] the “activity in words, biochemical and cell-based assays” value [1] was “inactive” and the IC50 [4] was > 50 µM.

C(#Cc1n[nH]c2ccccc12)c1ccsc1 [Compound 18, 3-(thiophen-3-ylethynyl)-1H-indazole] was tested, and the “PI3Kα activity in words” value [1] was “poor activity” and the IC50 [4] was > 100 µM.

For C(#Cc1n[nH]c2ccccc12)c1ccccn1 [Compound 12, 3-(pyridin-2-ylethynyl)-1H-indazole], the IC50 [4] was > 100 µM.

Nc1ccccc1C#Cc1n[nH]c2ccccc12 [Compound 16, 2-((1H-indazol-3-yl)ethynyl)aniline] was tested, and the IC50 [4] was > 100 µM.

In the case of C(#CC1CCCC1)c1n[nH]c2ccccc12 [Compound 14, 3-(cyclopentylethynyl)-1H-indazol], the “activity in words, biochemical and cell-based assays” value [1] is reported as “inactive” and the IC50 [4] is reported as > 50 µM.

With CN(C)CC#Cc1n[nH]c2ccccc12 [Compound 11, 3-(1H-indazol-3-yl)-N,N-dimethylprop-2-yn-1-amine] the “activity in words, biochemical and cell-based assays” value [1] was “inactive” and the IC50 [4] was > 100 µM.

With FC(F)(F)c1cc(C#Cc2n[nH]c3ccccc23)cc(C(F)(F)F)c1 [Compound 17, 3-((3,5-bis(trifluoromethyl)phenyl)ethynyl)-1H-indazole] the “PI3Kα activity in words” value [1] was “poor activity” and the IC50 [4] was > 100 µM.

For Fc1cc(F)cc(C#Cc2n[nH]c3ccccc23)c1 [Compound 8, 3-((3,5-difluorophenyl)ethynyl)-1H-indazole], the “PI3Kα activity in words” value [1] was “poor activity”, the IC50 [4] was > 100 µM and the IC50 [5] was > 200 µM.

For C(#Cc1n[nH]c2ccccc12)c1ccccc1 [Compound 7, 3-(phenylethynyl)-1H-indazole], the “PI3Kα activity in words” value [1] was “poor activity” and the IC50 [4] was > 100 µM.

N#Cc1ccc(C#Cc2n[nH]c3ccccc23)cc1 [Compound 19, 4-((1H-indazol-3-yl)ethynyl)benzonitrile] was tested, and the “PI3Kα activity in words” value [1] was “poor activity” and the IC50 [4] was > 50 µM.

For Nc1ccc(C#Cc2n[nH]c3ccccc23)cc1 [Compound 6, 4-((1H-indazol-3-yl)ethynyl)aniline], the GI50 [6] was 3.6 µM, the “selectivity for α isoform over the β and γ isoforms” value [7] was “about 100 fold” and the IC50 [4] was 17.1 µM.

For C(#Cc1n[nH]c2ccccc12)c1ccncc1 [Compound 10, 3-(pyridin-4-ylethynyl)-1H-indazole], the “U87 spheroid cell growth/proliferation (spheroid volumes)” value [8] was “strongly suppressed cell growth/proliferation”, the “share of 314 protein kinases showing ≥ 50% inhibition” value [9] was “less than 10%” and the inhibition at 10 µM [10] was > 50%.
